Assay results reported in patent US9145402B2, “Aminopyrimidine derivatives as LRRK2 modulators” (Genentech, Inc., priority 2011, dated 2015).

biological target: LRRK2 (Homo sapiens (Human), UniProt Q5S007, G2019S); test: In Vitro LRRK2 LabChip Assay (LRRK2 Ki); format: biochemical
Protocol: In Vitro LRRK2 LabChip Assay
This assay was used to determine a compound's potency in inhibiting activity of LRRK2 by determining, Kiapp, IC50, or percent inhibition values. In a polypropylene plate, LRRK2, fluorescently-labeled peptide substrate, ATP and test compound were incubated together. Using a LabChip 3000 (Caliper Life Sciences), after the reaction the substrate was separated by capillary electrophoresis into two populations: phosphorylated and unphosphorylated. The relative amounts of each were quantitated by fluorescence intensity. LRRK2 Ki was determined according to the equation: Y=V0*(1−((x+Ki*(1+S/Km)+Et)/(2*Et)−(((x+Ki*(1+S/Km)+Et)^2−(4*Et*x))^0.5)/(2*Et))). Ki values in Table 4 and elsewhere herein are shown in μM.
Assay conditions and materials used were as follows:
Kinase reaction time: 2 hours
Wild type in 5 mM MgCl2: 80 μM
Solid Support: Black 50 μL volume polypropylene 384 well plate (MatriCal cat #MP101-1-PP)
Non-binding plate: 384 well clear V-bottom polypropylene plates (Greiner cat #781280).
ATP: 10 mM ATP (Cell Signaling cat #9804).
Coating Reagent #3: Coating Reagent #3 (Caliper).
Complete Reaction Buffer: H2O/25 mM Tris, pH 8.0/5 mM MgCl2/2 mM DTT/0.01% Triton X-100.
Stop Solution: H2O/100 mM HEPES, pH 7.2/0.015% Brij-35/0.2% Coating Reagent #3/20 mM EDTA.
Separation Buffer: H2O/100 mM HEPES, pH 7.2/0.015% Brij-35/0.1% Coating Reagent #3/1:200 Coating Reagent #8/10 mM EDTA/5% DMSO.
Compound Plate Preparation:
For serial dilutions, 34.6 μl DMSO was added to columns 3-24. For the assay controls, 37.5 μl DMSO was added to columns 1 and 2 of rows A and P. a,d and 50 μl 25 μM G-028831 (Staurosporine) was added to columns 1 and 2, row B. For the samples: to start at 100 μM, 37.5 μl DMSO was to columns 1 and 2, then 12.5 μl 10 mM compound; to start at 10 μM, 78 μl DMSO was added to columns 1 & 2, then 2 μl 10 mM compound; and to start at 1 μM, 25 μM compound (2 μl 10 mM cmpd+798 μl DMSO) was added to empty columns 1 and 2. A Precision instrument was used to perform 1:3.16 serial dilutions (“PLK_BM_serial_halflog”).
ATP was diluted to 282.1 μM in Complete Kinase Buffer (final concentration was 130 μM).
Total and Blank Preparation:
In Complete Reaction Buffer, substrate was diluted to 4 μM. Equal volumes of Complete Reaction Buffer and 4 μM substrate were combined to obtain the blank. Equal volumes of Complete Reaction Buffer and 4 μM substrate were combined and to the combined solution was added 2× final LRRK2 concentration.
To a 50 μl polypropylene plate, 5 μl/well buffer/substrate was added by hand to Blank wells. A Biomek FX was used to start the kinase reaction (“PLK SAR 23 ATP”). The following were added to the appropriate wells:
5 μl/well compound/ATP in Assay Plate;
5 μl/well kinase/substrate in Assay Plate;
The plate was incubated for 2 hours in the dark. Biomek FX was used to stop the kinase reaction (“PLK Stop”), and 10 μl/well Stop solution was added to the Assay Plate. Results were read on the LabChip 3000.
The LabChip 3000 was run using the job “LRRK2 IC50” with the following job settings:
Downstream voltage: −500 V
Upstream voltage: −2350 V
Post sample buffer sip time: 75 seconds
Post dye buffer sip time: 75 seconds
Final delay time: 200 seconds

Sequence of LRRK2 (Q5S007 970-2527 G2019S): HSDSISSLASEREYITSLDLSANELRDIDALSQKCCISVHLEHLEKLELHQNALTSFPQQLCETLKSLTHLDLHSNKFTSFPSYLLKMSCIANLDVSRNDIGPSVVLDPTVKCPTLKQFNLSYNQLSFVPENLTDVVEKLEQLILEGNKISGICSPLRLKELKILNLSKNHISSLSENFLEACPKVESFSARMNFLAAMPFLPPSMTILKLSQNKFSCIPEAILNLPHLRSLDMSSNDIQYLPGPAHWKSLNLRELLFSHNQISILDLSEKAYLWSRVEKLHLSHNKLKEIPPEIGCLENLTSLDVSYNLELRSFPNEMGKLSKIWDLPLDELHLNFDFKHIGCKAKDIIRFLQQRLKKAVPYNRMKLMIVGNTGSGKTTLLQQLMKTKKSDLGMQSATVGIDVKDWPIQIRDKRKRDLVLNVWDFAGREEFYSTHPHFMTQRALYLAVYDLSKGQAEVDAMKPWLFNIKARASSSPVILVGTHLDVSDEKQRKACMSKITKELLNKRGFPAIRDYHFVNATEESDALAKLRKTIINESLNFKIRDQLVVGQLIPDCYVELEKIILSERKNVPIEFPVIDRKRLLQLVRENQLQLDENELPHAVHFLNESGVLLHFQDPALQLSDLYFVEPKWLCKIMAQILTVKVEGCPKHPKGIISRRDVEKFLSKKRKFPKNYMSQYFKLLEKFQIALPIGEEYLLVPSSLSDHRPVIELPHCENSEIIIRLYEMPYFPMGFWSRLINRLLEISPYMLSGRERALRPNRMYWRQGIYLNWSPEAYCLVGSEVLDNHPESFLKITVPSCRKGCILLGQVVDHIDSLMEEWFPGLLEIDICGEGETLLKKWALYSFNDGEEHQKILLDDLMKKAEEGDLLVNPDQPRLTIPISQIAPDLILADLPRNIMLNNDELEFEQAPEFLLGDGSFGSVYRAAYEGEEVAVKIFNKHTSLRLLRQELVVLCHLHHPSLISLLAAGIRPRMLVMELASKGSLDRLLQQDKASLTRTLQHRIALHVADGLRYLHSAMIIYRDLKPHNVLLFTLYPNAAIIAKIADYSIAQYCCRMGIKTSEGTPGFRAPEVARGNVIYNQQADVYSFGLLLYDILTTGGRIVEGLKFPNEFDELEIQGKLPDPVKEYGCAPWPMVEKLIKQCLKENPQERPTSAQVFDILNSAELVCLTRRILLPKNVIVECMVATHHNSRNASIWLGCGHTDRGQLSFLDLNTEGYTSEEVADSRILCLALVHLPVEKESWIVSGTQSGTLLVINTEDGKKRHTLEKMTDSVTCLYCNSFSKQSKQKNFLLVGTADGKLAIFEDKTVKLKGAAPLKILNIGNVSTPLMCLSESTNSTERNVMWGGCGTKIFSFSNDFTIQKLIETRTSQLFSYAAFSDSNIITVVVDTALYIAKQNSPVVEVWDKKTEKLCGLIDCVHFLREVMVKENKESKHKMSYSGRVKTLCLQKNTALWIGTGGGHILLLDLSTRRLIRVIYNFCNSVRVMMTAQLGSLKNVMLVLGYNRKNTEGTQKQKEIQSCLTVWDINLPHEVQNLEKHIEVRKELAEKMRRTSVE

Row | Compound | Ki
1 | CCS(=O)(=O)c1cc(OC)c(Nc2ncc(C(F)(F)F)c(NC)n2)cc1C [Example 35, N2-(4-(ethylsulfonyl)-2-methoxy-5-methylphenyl)-N4-methyl-5-(trifluoromethyl)pyrimidine-2,4-diamine] | 3 nM
2 | CNc1nc(Nc2cc(C)c(S(C)(=O)=O)cc2OC)ncc1C(F)(F)F [Example 23, N2-(4-Methanesulfonyl-2-methoxy-5-methyl-phenyl)-N4-methyl-5-trifluoromethyl-pyrimidine-2,4-diamine] | 0.3 nM
3 | CNc1nc(Nc2ccc(C#N)cc2OC)ncc1C(F)(F)F [Example 4, 3-Methoxy-4-(4-(methylamino)-5-(trifluoromethyl)pyrimidin-2-ylamino)benzonitrile] | 8 nM
4 | CNc1nc(Nc2ccc(S(C)(=O)=O)cc2Cl)ncc1C(F)(F)F [Example 7, N2-(2-Chloro-4-methanesulfonyl-phenyl)-N4-methyl-5-trifluoromethyl-pyrimidine-2,4-diamine] | 8 nM
5 | CNc1nc(Nc2ccc(N3CCOCC3)cc2OC)ncc1Cl [Example 24, 5-chloro-N2-(2-methoxy-4-morpholinophenyl)-N4-methylpyrimidine-2,4-diamine] | 9 nM
6 | CNc1nc(Nc2ccc(C(F)(F)F)cc2OC)ncc1Cl [Example 28, 5-chloro-N2-(2-methoxy-4-(trifluoromethyl)phenyl)-N4-methylpyrimidine-2,4-diamine] | 35 nM
7 | CNc1nc(Nc2cc(Cl)c(S(C)(=O)=O)cc2OC)ncc1C(F)(F)F [Example 20, N2-(5-Chloro-4-methanesulfonyl-2-methoxy-phenyl)-N4-methyl-5-trifluoromethyl-pyrimidine-2,4-diamine] | 1 nM
8 | CNc1nc(Nc2ccc(C(=O)O)cc2OC)ncc1Cl [Example 25, 4-(5-chloro-4-(methylamino)pyrimidin-2-ylamino)-3-methoxybenzoic acid] | 7 nM
9 | CNc1nc(Nc2ccc(S(C)(=O)=O)cc2Cl)ncc1Cl [Example 8, 5-Chloro-N2-(2-chloro-4-methanesulfonyl-phenyl)-N4-methyl-pyrimidine-2,4-diamine] | 8 nM

Now from value to compound:

Row | Ki | Compound
10 | 2 nM | CCNc1nc(Nc2cc(F)c(CN3CCOCC3)cc2OCCF)ncc1C(F)(F)F [Example 22, N4-Ethyl-N2-[5-fluoro-2-(2-fluoro-ethoxy)-4-morpholin-4-ylmethyl-phenyl]-5-trifluoromethyl-pyrimidine-2,4-diamine]
11 | 3 nM | CCNc1nc(Nc2cc(C)c(S(C)(=O)=O)cc2OC)ncc1C(F)(F)F [Example 34, N4-ethyl-N2-(2-methoxy-5-methyl-4-(methylsulfonyl)phenyl)-5-(trifluoromethyl)pyrimidine-2,4-diamine]
12 | 47 nM | CNc1nc(Nc2ccc(S(=O)(=O)N3CCOCC3)cc2OC)ncc1C(F)(F)F [Example 26, N2-(2-methoxy-4-(morpholinosulfonyl)phenyl)-N4-methyl-5-(trifluoromethyl)pyrimidine-2,4-diamine]
13 | 3 nM | CNc1nc(Nc2ccc(S(C)(=O)=O)cc2OCCF)ncc1C(F)(F)F [Example 19, N2-[2-(2-Fluoro-ethoxy)-4-methanesulfonyl-phenyl]-N4-methyl-5-trifluoromethyl-pyrimidine-2,4-diamine]
14 | 3 nM | CNc1nc(Nc2cc(F)c(N3CCCC3=O)cc2OC)ncc1C(F)(F)F [Example 30, 1-(2-fluoro-5-methoxy-4-(4-(methylamino)-5-(trifluoromethyl)pyrimidin-2-ylamino)phenyl)pyrrolidin-2-one]
15 | 56 nM | CNc1nc(Nc2cc(F)c(CN3CCOCC3)cc2OC)ncc1C(F)(F)F [Example 37, N2-(5-fluoro-2-methoxy-4-(morpholinomethyl)phenyl)-N4-methyl-5-(trifluoromethyl)pyrimidine-2,4-diamine]
16 | 22 nM | CNc1nc(Nc2cc(F)c(C#N)cc2OC)ncc1C(F)(F)F [Example 3, 2-Fluoro-5-methoxy-4-(4-(methylamino)-5-(trifluoromethyl)pyrimidin-2-ylamino)benzonitrile]
